# Test results from paper PMC8287944, “5-Fluorouracil blocks quorum-sensing of biofilm-embedded methicillin-resistant Staphylococcus aureus in mice” (Nucleic Acids Research, 2021).
# Experiments:
# [1] = tested on: MRSA ATCC 43300; test: Adherent MRSA quantification (CFU plating); format: cell-based, Staphylococcus aureus; details: 0.1 μM 5-FU, 24 h
# Description: To quantify the amount of adherent bacteria, 2 – 3 × 10^5 CFU/ml MRSA were grown for 24 h in the presence of different 5-FU concentrations. After incubation under static conditions at 37°C, the plate was washed twice with PBS. Adherent bacteria were removed with 100 μl PBS and appropriate dilutions were plated on Mueller-Hinton agar (Becton Dickinson AG, Allschwil, Switzerland) plates overnight at 37°C. Three independent experiments were performed, each performed in triplicate, and the mean values were calculated. Dimethyl sulfoxide (DMSO) was used as a control.
# (§1) Figure 4. Bioactivity of 5-FU against MRSA ATCC 43300. (A) Quorum sensing-associated AI-2 activity of MRSA 43300 grown for 3 h with different 5-FU concentrations. (B) Effect of different 5-FU concentrations on MRSA 43300 growth. (C) Interference with biofilm formation. (D) Effect on adherent MRSA 43300. Data points represent three biological replicates expressed as mean ± SD (**P < 0.01; ***P < 0.001; ****P < 0.0001).
# [2] = tested on: MRSA ATCC 43300; test: AI-2 activity of MRSA ATCC 43300; format: cell-based, Staphylococcus aureus; details: MRSA ATCC 43300, 3 h, different 5-FU concentrations
# Description: To confirm that the phenotype could be restored, 1 μM synthetic (S)-4,5-dihydroxy-2,3-pentanedione (DPD) (Biosynth Carbosynth, Staad, Switzerland) was used. After 3 h under static conditions at 37°C, the supernatant was analysed for AI-2 activity with V. harveyi (MM32).
# as §1
# Figure 5. Phenotype restoration with synthetic AI-2 supplementation. AI-2 activity of MRSA ATCC 43300 was evaluated with and without 1 μM DPD in the presence of different 5-FU concentrations. The dashed line indicates the baseline level of AI-2 of MRSA ATCC 43300 in the absence of 5-FU. Values represent 3 biological replicates expressed as mean ± SD (**P < 0.01; ****P < 0.0001).
# [3] = tested on: MRSA ATCC 43300; test: Biofilm formation (Crystal Violet); format: cell-based, Staphylococcus aureus; details: 0.1 μM 5-FU, 24 h
# Description: To quantify the formation of bacterial biofilms, bacteria were grown for 24 h in the presence of potential inhibitors in 96-well polystyrene plates. The plates were then washed three times with distilled water. Remaining cells were stained with 0.1% Crystal Violet solution (5% methanol, 5% isopropanol) and further washed to remove excess dye. Crystal Violet was redissolved in 20% acetic acid solution and the absorbance of the solution was measured at 600 nm.
# as §1
# [4] = tested on: V. harveyi (BB170); test: V. harveyi BB170 bioluminescence (5 h); format: cell-based, Vibrio harveyi; details: V. harveyi BB170, 5 h
# Description: The test strain V. harveyi BB170 was grown overnight in Luria Marine (LM)-medium ([25]). The culture was 1:500 diluted in AB-medium (0.3 M NaCl, 10 mM potassium phosphate, 1 mM L-arginine, […], 1% glycerol) the next day, and then challenged with various chemical compounds. After 5 h of shaking at 200 rpm at 30°C, the bioluminescence of BB170 was quantified on a GENios Pro plate reader (Tecan, Männedorf, Switzerland).
# Figure 3. Bioactivity of hit candidates against Vibrio harveyi. Effect on bacterial growth. V. harveyi (BB170) was grown in the presence of individual compounds (A–H) for 5 h and the bioluminescence (green circles) was quantified. After a total of 24 h, bacterial growth (+) was evaluated by measuring the optical density (OD600). The gray translucent background in (C) represents the narrow range within which the compound reduces bioluminescence without affecting growth.
# [5] = tested on: MRSA ATCC 43300; test: MRSA 43300 growth; format: cell-based, Staphylococcus aureus; details: 0.1 μM 5-FU
# Description: as §1
structure (smiles),measurement,setting,value
O=c1[nH]cc(F)c(=O)[nH]1 [5-Fluorouracil],Number of adherent MRSA,[1],reduced the number of adherent MRSA
same,AI-2 production and quorum-sensing capacity of MRSA,[2],dose-dependently reduced
same,Biofilm formation of MRSA,[3],significantly decreased biofilm formation
same,Effect on V. harveyi bioluminescence,[4],reduced the bioluminescence
same,Bacterial growth of MRSA,[5],significantly decreased bacterial growth
